# Test results: patent US20240415914A1, “Water Dispersible Cannabinoid Compositions” (priority 2021, published 2024)
# Where two headings read alike, the source gives them in different places.
# What was measured:
# [1] = Stability of cannabinoid and Vitamin E components of Beverage 2 (AB Red) stored at 8° C. and 21-25° C., LCMSMS over 570 days
# Method: The LCMSMS was calibrated for 0-50 ng/ml cannabinoids with the same resin material used in the preparation of the concentrates. At each time period, 100 μml of beverage was diluted with 10 ml of methanol and injected into the LCMSMS for analysis.
# [2] = format: physicochemical; details: stored at room temperature (21-25° C.)
# Method: At each time period, 0.05 g of powder was dissolved in 10 ml-15 of ethanol, diluted to fall within the analytical range, and injected into the LCMSMS for analysis.
compound,measurement,setting,value
"CCCCCc1cc2c(c(O)c1C(=O)O)[C@@H]1C=C(C)CC[C@H]1C(C)(C)O2 [D9 THCA, delta-9-tetrahydrocannabinolic acid]",Stability of Cannabinoids in AB Red,"[1]; 8° C., 0 days",1.35 µg/mL
same,Stability of Cannabinoids in AB Red,"[1]; 8° C., 1 days",1.34 µg/mL
same,Stability of Cannabinoids in AB Red,"[1]; 8° C., 2 days",1.34 µg/mL
same,Stability of Cannabinoids in AB Red,"[1]; 8° C., 3 days",1.35 µg/mL
same,Stability of Cannabinoids in AB Red,"[1]; 8° C., 5 days",1.36 µg/mL
same,Stability of Cannabinoids in AB Red,"[1]; 8° C., 8 days",1.35 µg/mL
same,Stability of Cannabinoids in AB Red,"[1]; 8° C., 9 days",1.36 µg/mL
same,Stability of Cannabinoids in AB Red,"[1]; 8° C., 10 days",1.35 µg/mL
same,Stability of Cannabinoids in AB Red,"[1]; 8° C., 11 days",1.35 µg/mL
same,Stability of Cannabinoids in AB Red,"[1]; 8° C., 12 days",1.32 µg/mL
same,Stability of Cannabinoids in AB Red,"[1]; 8° C., 15 days",1.33 µg/mL
same,Stability of Cannabinoids in AB Red,"[1]; 8° C., 16 days",1.31 µg/mL
same,Stability of Cannabinoids in AB Red,"[1]; 8° C., 17 days",1.34 µg/mL
same,Stability of Cannabinoids in AB Red,"[1]; 8° C., 18 days",1.35 µg/mL
same,Stability of Cannabinoids in AB Red,"[1]; 8° C., 19 days",1.32 µg/mL
same,Stability of Cannabinoids in AB Red,"[1]; 8° C., 22 days",1.34 µg/mL
same,Stability of Cannabinoids in AB Red,"[1]; 8° C., 23 days",1.33 µg/mL
same,Stability of Cannabinoids in AB Red,"[1]; 8° C., 24 days",1.33 µg/mL
same,Stability of Cannabinoids in AB Red,"[1]; 8° C., 25 days",1.34 µg/mL
same,Stability of Cannabinoids in AB Red,"[1]; 8° C., 26 days",1.33 µg/mL
same,Stability of Cannabinoids in AB Red,"[1]; 8° C., 29 days",1.35 µg/mL
same,Stability of Cannabinoids in AB Red,"[1]; 8° C., 30 days",1.31 µg/mL
same,Stability of Cannabinoids in AB Red,"[1]; 8° C., 60 days",1.32 µg/mL
same,Stability of Cannabinoids in AB Red,"[1]; 8° C., 90 days",1.34 µg/mL
same,Stability of Cannabinoids in AB Red,"[1]; 8° C., 120 days",1.30 µg/mL
same,Stability of Cannabinoids in AB Red,"[1]; 8° C., 150 days",1.34 µg/mL
same,Stability of Cannabinoids in AB Red,"[1]; 8° C., 180 days",1.30 µg/mL
same,Stability of Cannabinoids in AB Red,"[1]; 8° C., 210 days",1.33 µg/mL
same,Stability of Cannabinoids in AB Red,"[1]; 8° C., 240 days",1.32 µg/mL
same,Stability of Cannabinoids in AB Red,"[1]; 8° C., 270 days",1.33 µg/mL
same,Stability of Cannabinoids in AB Red,"[1]; 8° C., 300 days",1.30 µg/mL
same,Stability of Cannabinoids in AB Red,"[1]; 8° C., 330 days",1.34 µg/mL
same,Stability of Cannabinoids in AB Red,"[1]; 8° C., 390 days",1.29 µg/mL
same,Stability of Cannabinoids in AB Red,"[1]; 8° C., 420 days",1.29 µg/mL
same,Stability of Cannabinoids in AB Red,"[1]; 8° C., 450 days",1.31 µg/mL
same,Stability of Cannabinoids in AB Red,"[1]; 8° C., 480 days",1.28 µg/mL
same,Stability of Cannabinoids in AB Red,"[1]; 8° C., 510 days",1.25 µg/mL
same,Stability of Cannabinoids in AB Red,"[1]; 8° C., 540 days",1.26 µg/mL
same,Stability of Cannabinoids in AB Red,"[1]; 8° C., 570 days",1.24 µg/mL
same,Stability of Cannabinoids in AB Red,"[1]; 21-25° C., 0 days",1.35 µg/mL
same,Stability of Cannabinoids in AB Red,"[1]; 21-25° C., 1 days",1.34 µg/mL
same,Stability of Cannabinoids in AB Red,"[1]; 21-25° C., 2 days",1.30 µg/mL
same,Stability of Cannabinoids in AB Red,"[1]; 21-25° C., 3 days",1.32 µg/mL
same,Stability of Cannabinoids in AB Red,"[1]; 21-25° C., 5 days",1.36 µg/mL
same,Stability of Cannabinoids in AB Red,"[1]; 21-25° C., 8 days",1.36 µg/mL
same,Stability of Cannabinoids in AB Red,"[1]; 21-25° C., 9 days",1.35 µg/mL
same,Stability of Cannabinoids in AB Red,"[1]; 21-25° C., 10 days",1.33 µg/mL
same,Stability of Cannabinoids in AB Red,"[1]; 21-25° C., 11 days",1.33 µg/mL
same,Stability of Cannabinoids in AB Red,"[1]; 21-25° C., 12 days",1.33 µg/mL
same,Stability of Cannabinoids in AB Red,"[1]; 21-25° C., 15 days",1.30 µg/mL
same,Stability of Cannabinoids in AB Red,"[1]; 21-25° C., 16 days",1.36 µg/mL
same,Stability of Cannabinoids in AB Red,"[1]; 21-25° C., 17 days",1.35 µg/mL
same,Stability of Cannabinoids in AB Red,"[1]; 21-25° C., 18 days",1.36 µg/mL
same,Stability of Cannabinoids in AB Red,"[1]; 21-25° C., 19 days",1.31 µg/mL
same,Stability of Cannabinoids in AB Red,"[1]; 21-25° C., 22 days",1.34 µg/mL
same,Stability of Cannabinoids in AB Red,"[1]; 21-25° C., 23 days",1.36 µg/mL
same,Stability of Cannabinoids in AB Red,"[1]; 21-25° C., 24 days",1.30 µg/mL
same,Stability of Cannabinoids in AB Red,"[1]; 21-25° C., 25 days",1.35 µg/mL
same,Stability of Cannabinoids in AB Red,"[1]; 21-25° C., 26 days",1.32 µg/mL
same,Stability of Cannabinoids in AB Red,"[1]; 21-25° C., 29 days",1.33 µg/mL
same,Stability of Cannabinoids in AB Red,"[1]; 21-25° C., 30 days",1.34 µg/mL
same,Stability of Cannabinoids in AB Red,"[1]; 21-25° C., 60 days",1.28 µg/mL
same,Stability of Cannabinoids in AB Red,"[1]; 21-25° C., 90 days",1.34 µg/mL
same,Stability of Cannabinoids in AB Red,"[1]; 21-25° C., 120 days",1.34 µg/mL
same,Stability of Cannabinoids in AB Red,"[1]; 21-25° C., 150 days",1.28 µg/mL
same,Stability of Cannabinoids in AB Red,"[1]; 21-25° C., 180 days",1.30 µg/mL
same,Stability of Cannabinoids in AB Red,"[1]; 21-25° C., 210 days",1.33 µg/mL
same,Stability of Cannabinoids in AB Red,"[1]; 21-25° C., 240 days",1.31 µg/mL
same,Stability of Cannabinoids in AB Red,"[1]; 21-25° C., 270 days",1.27 µg/mL
same,Stability of Cannabinoids in AB Red,"[1]; 21-25° C., 300 days",1.27 µg/mL
same,Stability of Cannabinoids in AB Red,"[1]; 21-25° C., 330 days",1.28 µg/mL
same,Stability of Cannabinoids in AB Red,"[1]; 21-25° C., 390 days",1.26 µg/mL
same,Stability of Cannabinoids in AB Red,"[1]; 21-25° C., 420 days",1.26 µg/mL
same,Stability of Cannabinoids in AB Red,"[1]; 21-25° C., 450 days",1.31 µg/mL
same,Stability of Cannabinoids in AB Red,"[1]; 21-25° C., 480 days",1.29 µg/mL
same,Stability of Cannabinoids in AB Red,"[1]; 21-25° C., 510 days",1.27 µg/mL
same,Stability of Cannabinoids in AB Red,"[1]; 21-25° C., 540 days",1.29 µg/mL
same,Stability of Cannabinoids in AB Red,"[1]; 21-25° C., 570 days",1.24 µg/mL
same,Stability in Powder Concentrate (content by LCMSMS),[2]; day 0,0.150 mg/g powder
same,Stability in Powder Concentrate (content by LCMSMS),[2]; day 1,0.150 mg/g powder
same,Stability in Powder Concentrate (content by LCMSMS),[2]; day 2,0.147 mg/g powder
same,Stability in Powder Concentrate (content by LCMSMS),[2]; day 3,0.150 mg/g powder
same,Stability in Powder Concentrate (content by LCMSMS),[2]; day 5,0.146 mg/g powder
same,Stability in Powder Concentrate (content by LCMSMS),[2]; day 8,0.156 mg/g powder
same,Stability in Powder Concentrate (content by LCMSMS),[2]; day 9,0.151 mg/g powder
same,Stability in Powder Concentrate (content by LCMSMS),[2]; day 10,0.148 mg/g powder
same,Stability in Powder Concentrate (content by LCMSMS),[2]; day 11,0.145 mg/g powder
same,Stability in Powder Concentrate (content by LCMSMS),[2]; day 12,0.152 mg/g powder
same,Stability in Powder Concentrate (content by LCMSMS),[2]; day 15,0.151 mg/g powder
same,Stability in Powder Concentrate (content by LCMSMS),[2]; day 16,0.157 mg/g powder
same,Stability in Powder Concentrate (content by LCMSMS),[2]; day 17,0.156 mg/g powder
same,Stability in Powder Concentrate (content by LCMSMS),[2]; day 18,0.149 mg/g powder
same,Stability in Powder Concentrate (content by LCMSMS),[2]; day 19,0.146 mg/g powder
same,Stability in Powder Concentrate (content by LCMSMS),[2]; day 22,0.150 mg/g powder
same,Stability in Powder Concentrate (content by LCMSMS),[2]; day 23,0.147 mg/g powder
same,Stability in Powder Concentrate (content by LCMSMS),[2]; day 24,0.150 mg/g powder
same,Stability in Powder Concentrate (content by LCMSMS),[2]; day 25,0.150 mg/g powder
same,Stability in Powder Concentrate (content by LCMSMS),[2]; day 26,0.150 mg/g powder
same,Stability in Powder Concentrate (content by LCMSMS),[2]; day 29,0.152 mg/g powder
same,Stability in Powder Concentrate (content by LCMSMS),[2]; day 30,0.151 mg/g powder
same,Stability in Powder Concentrate (content by LCMSMS),[2]; day 60,0.146 mg/g powder
same,Stability in Powder Concentrate (content by LCMSMS),[2]; day 90,0.147 mg/g powder
same,Stability in Powder Concentrate (content by LCMSMS),[2]; day 120,0.147 mg/g powder
same,Stability in Powder Concentrate (content by LCMSMS),[2]; day 150,0.153 mg/g powder
same,Stability in Powder Concentrate (content by LCMSMS),[2]; day 180,0.154 mg/g powder
same,Stability in Powder Concentrate (content by LCMSMS),[2]; day 210,0.151 mg/g powder
same,Stability in Powder Concentrate (content by LCMSMS),[2]; day 240,0.148 mg/g powder
same,Stability in Powder Concentrate (content by LCMSMS),[2]; day 270,0.148 mg/g powder
same,Stability in Powder Concentrate (content by LCMSMS),[2]; day 300,0.156 mg/g powder
same,Stability in Powder Concentrate (content by LCMSMS),[2]; day 330,0.156 mg/g powder
same,Stability in Powder Concentrate (content by LCMSMS),[2]; day 360,0.155 mg/g powder
same,Stability in Powder Concentrate (content by LCMSMS),[2]; day 390,0.153 mg/g powder
same,Stability in Powder Concentrate (content by LCMSMS),[2]; day 420,0.154 mg/g powder
same,Stability in Powder Concentrate (content by LCMSMS),[2]; day 450,0.155 mg/g powder
same,Stability in Powder Concentrate (content by LCMSMS),[2]; day 480,0.149 mg/g powder
same,Stability in Powder Concentrate (content by LCMSMS),[2]; day 510,0.154 mg/g powder
same,Stability in Powder Concentrate (content by LCMSMS),[2]; day 540,0.154 mg/g powder
same,Stability in Powder Concentrate (content by LCMSMS),[2]; day 570,0.148 mg/g powder
